The record followed here is patent publication US8592463B2, “Hedgehog pathway antagonists and therapeutic applications thereof” (Siena Biotech S.p.A., priority 2007, dated 2013).

The target in one assay is T1, Smo receptor (Homo sapiens, UniProt Q99835).
T1 construct: expressed in transfected cells; host or cells: FlpIN293 (HEK293-derived)
Briefly: Saturation binding of Bodipy-Cyclopamine to stable Smo-FLAG transfected cell line clone 3-5. As for the experimental part: (§1) The interaction of compounds with the Smo receptor was tested by a displacement binding assay using fluorescent ligand for the Smo receptor (Bodipy-Cyclopamine, Toronto Research Chemical Inc, cat#B674800) as the labeled ligand to be displaced.
(§2) In order to determine the Kd (concentration of the ligand where 50% of the maximal binding is reached) and the Bmax (maximal amount of ligand which can bind specifically to the receptor in a biological preparation) of the fluorescent ligand, the Specific Binding (SB) was calculated by subtraction Non Specific Binding (NSB) from Total Binding (TB). The TB was determined by adding increasing concentration of Bodipy-Cyclopamine to the cells, while the NSB was determined by adding a mixture of increasing concentration of Bodipy-Cyclopamine with a saturating concentration of an well described antagonist (in this case, N-[3-(1H-benzimidazol-2-yl)-4-chlorophenyl]-3,5-dimethoxy-benzamide (Rubin et al. WO2003011219) at 10 μM was selected) to the cells. For each concentration of Bodipy-Cyclopamine, the SB was calculated by subtracting the value of NSB from TB. From the SB curve Bmax and Kd were calculated. […] The Ki is the concentration of non labeled ligand which inhibits 50% of the specific binding (SB) of the labeled ligand, and corrected for the effective used concentration of the labeled ligand. […]

Assay [1] concerns 293FlpIN/clone E-3 mock transfected cells. Put plainly: Saturation binding of Bodipy-Cyclopamine to stable mock transfected cell line clone E-3. On the set-up: species or system human. As for the experimental part: as §1, §2

T1 sequence (Q99835 28-787): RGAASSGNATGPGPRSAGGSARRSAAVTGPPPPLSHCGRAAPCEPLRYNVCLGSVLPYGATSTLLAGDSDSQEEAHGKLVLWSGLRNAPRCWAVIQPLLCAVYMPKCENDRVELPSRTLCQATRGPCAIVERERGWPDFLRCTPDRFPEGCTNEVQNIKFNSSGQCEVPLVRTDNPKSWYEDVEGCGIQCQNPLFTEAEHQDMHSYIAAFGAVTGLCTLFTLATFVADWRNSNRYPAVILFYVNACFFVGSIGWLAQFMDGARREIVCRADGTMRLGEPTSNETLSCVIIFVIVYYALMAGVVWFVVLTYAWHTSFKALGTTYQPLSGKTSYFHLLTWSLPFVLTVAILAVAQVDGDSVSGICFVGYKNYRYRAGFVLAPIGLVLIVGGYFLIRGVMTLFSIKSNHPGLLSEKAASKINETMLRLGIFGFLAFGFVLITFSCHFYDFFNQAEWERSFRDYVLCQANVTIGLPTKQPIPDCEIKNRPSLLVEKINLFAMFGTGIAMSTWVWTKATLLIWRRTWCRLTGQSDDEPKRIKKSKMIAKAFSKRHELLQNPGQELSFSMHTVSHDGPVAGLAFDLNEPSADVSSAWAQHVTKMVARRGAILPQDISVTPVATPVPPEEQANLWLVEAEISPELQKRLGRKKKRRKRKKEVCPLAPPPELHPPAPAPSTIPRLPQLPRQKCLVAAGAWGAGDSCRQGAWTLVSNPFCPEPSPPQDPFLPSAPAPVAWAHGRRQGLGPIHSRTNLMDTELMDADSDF

With Bodipy-Cyclopamine, the values for the Kd (on Smo receptor; in assay [1]) were 44.3 nM and 115 nM, respectively.
